Assays:
Type in all cases: cell-based, human
CD34+ HSPCs [1] = assay: Definitive screening design cytokine screen for proT cell differentiation and expansion
Description: For experiments 7 days or longer, HSPCs were seeded at 63-125 cells/mm^2 (equivalent to 2000-4000 cells/well of a 96-well plate) on DL4+VCAM-1-coated surfaces. Experiments shorter than 7 days (CFSE and qPCR) were seeded at 470-780 cells/mm^2 (equivalent to 15,000-25,000 cells/well of a 96-well plate) to provide enough cells for analysis. Cells were cultured in 100 μl/well (32 μl/well for 384-well plate) of Iscove's Modified Eagle Medium (IMDM) supplemented with 20% bovine serum albumin, insulin, and transferrin (BIT 9500) serum substitute (Stemcell Technologies), 1 μg/ml low-density lipoprotein (LDL; Stemcell Technologies), 60 μM ascorbic acid (Sigma), 24 μM 2-mercaptoethanol (Sigma), and 1% penicillin-streptomycin (P/S; Invitrogen). The cytokines used in control condition were SCF, FLT3L, TPO, and IL-7 (also known as the “4F cytokines”, all of which were obtained from R&D Systems), each at a concentration of 20 ng/ml or 100 ng/ml as indicated in the text. All other cytokines were purchased from R&D Systems and used in the combinations and concentrations indicated in the text. For certain experiments, the γ-secretase inhibitor (2S)-N-[(3,5-Difluorophenyl)acetyl]-L-alanyl-2-phenyl] glycine 1,1-dimethylethyl ester (DAPT) or dimethyl sulfoxide (DMSO) was added to media at the concentrations indicated in the text.
For screening experiments, a Definitive Screening Design (DSD)^7 was employed where each factor was tested at three levels (scaled to [−1,0,1]). The design included at least 2m+1 runs, where m is the number of factors, comprised of m fold-over pairs plus a center run (with all factors at level 0) and with orthogonal blocking of UCB donors.^8
Absolute cell numbers were acquired for each cell population of interest and, for initial experiments, a z-score was calculated relative to the control condition:
where SE(⋅) is the standard error. Control conditions were the cytokines used previously in the DL4+VCAM-1 assay as in Shukla et al.^6 Stepwise regression using the minimum Bayesian information criterion method was used to determine significant terms and, from this, a linear regression model of z-scores was constructed that included main and quadratic effects and two-factor interactions. This provided a better- or worse-than estimate for each factor compared to the control. The DSD layout and regression model were constructed using JMP 13 software (SAS). Follow up experiments measuring the dose response of top factors, the regression model was fit to the absolute cell count. Values were square root or log-transformed as necessary to ensure that residuals were approximately normal before fitting the regression model.
Test conditions were arranged using serial dilutions of each cytokine and laid out using an Eppendorf epMotion 5070 liquid handler in 384-well plates previously coated with DL4 and VCAM-1.
To identify factors that enhance proT cell differentiation and expansion, a two-part screen was conducted from day 0-7 and day 7-14 to separate the effects of screened molecules on HSPCs and differentiating proT cells (FIG. 1a). Screened molecules were tested at three doses each in combination using a definitive screening design (DSD) experiment and a linear regression model was fit to empirical data to estimate dose response.^7 The response to factors was measured against a control condition that contained SCF, FLT3L, TPO and IL-7 cytokines as in Shukla et al.^6 but using a lower concentration of 20 ng/ml each.
Medium gray indicates the effect of the control condition; dark gray to black indicates an effect greater than the control condition; and light gray to white indicates an effect lesser than the control condition. The size of each circle indicates the significance of the effect in the linear regression model. Combinations of factors indicate two-factor interactions (e.g., TPO*IL-1β) or quadratic effects (e.g., IL-21*IL-21) in the regression model. […] IL-3 and TNFα were selected for further investigation. […]

CD34+ HSPCs [2] = assay: Timed addition of TNFα (day 0, 1, 2 or 3), 7-day culture on DL4+VCAM-1; conditions: late addition of TNFα; day 7
Description: (§1) For experiments 7 days or longer, HSPCs were seeded at 63-125 cells/mm^2 (equivalent to 2000-4000 cells/well of a 96-well plate) on DL4+VCAM-1-coated surfaces. Experiments shorter than 7 days (CFSE and qPCR) were seeded at 470-780 cells/mm^2 (equivalent to 15,000-25,000 cells/well of a 96-well plate) to provide enough cells for analysis. Cells were cultured in 100 μl/well (32 μl/well for 384-well plate) of Iscove's Modified Eagle Medium (IMDM) supplemented with 20% bovine serum albumin, insulin, and transferrin (BIT 9500) serum substitute (Stemcell Technologies), 1 μg/ml low-density lipoprotein (LDL; Stemcell Technologies), 60 μM ascorbic acid (Sigma), 24 μM 2-mercaptoethanol (Sigma), and 1% penicillin-streptomycin (P/S; Invitrogen). The cytokines used in control condition were SCF, FLT3L, TPO, and IL-7 (also known as the “4F cytokines”, all of which were obtained from R&D Systems), each at a concentration of 20 ng/ml or 100 ng/ml as indicated in the text. All other cytokines were purchased from R&D Systems and used in the combinations and concentrations indicated in the text. For certain experiments, the γ-secretase inhibitor (2S)-N-[(3,5-Difluorophenyl)acetyl]-L-alanyl-2-phenyl] glycine 1,1-dimethylethyl ester (DAPT) or dimethyl sulfoxide (DMSO) was added to media at the concentrations indicated in the text. […]

CD34+ HSPCs [3] = assay: γ-secretase inhibitor (GSI) titration, 14-day culture on DL4+VCAM-1; conditions: increasing concentrations of GSI; 14 days
Description: as §1

TNFα
effect on total live cells, CD7+ lymphocytes and CD7+CD5+ cells relative to the control condition (CD34+ HSPCs [1]; day 0-7 and day 7-14, control SCF, FLT3L, TPO, IL-7 at 20 ng/ml each, linear regression model): string positive effects
dose response of live cells, CD7+ lymphocytes and CD7+CD5+ proT cells (CD34+ HSPCs [1]; range of concentrations, n=2 UCB donors): curved response in at least one population
CD7+ lymphoid cells (CD34+ HSPCs [2]): decrease in CD7+ lymphoid cells
CD14/33+ myeloid lineage cells (CD34+ HSPCs [2]): increase in CD14/33+ myeloid lineage cells
CD7+CD5+ proT cell generation under Notch inhibition (CD34+ HSPCs [3]): capable of maintaining CD7+CD5+ proT cell generation with a higher concentration of GSI than the control condition
